Measurements taken from patent publication US20160280743A1, “BACTERIAL MUTANTS AND METHODS OF USE” (priority 2015, published 2016).
In brackets after ≈: the same amount, converted by molar mass. Like-named read-outs stand apart in the source and are kept apart here.

How the values were obtained:
[1] = tested on: E. coli WT, WT-Pore, ΔTolC, ΔTolC-Pore; assay type: cell-based, Escherichia coli; settings: for Fold MIC change, Efflux, WT-Pore/ΔTolC-Pore / Fold MIC change, Efflux, WT/ΔTolC / Fold MIC change, OM barrier, WT/WT-Pore / Fold MIC change, OM barrier, ΔTolC/ΔTolC-Pore: E. coli
[2] = tested on: E. coli BW 25113 (WT); experiment: microbe, parasite or virus in culture; settings: Escherichia coli
Description: (§1) Susceptibilities of E. coli and P. aeruginosa cells to different classes of antibiotics were determined by two-fold broth dilution method [1] with following modifications. Cells were grown in Luria-Bertani (LB) broth (tryptone 10 g/L, yeast extract 5 g/L and NaCl 5 g/L) with appropriate selection markers as needed, at 37° C. with shaking at 200 rpm. When needed, at OD600˜0.3, either L-arabinose (final concentration 0.1%) or IPTG (final concentration 0.1 mM) were added to induce the expression of the pore and cells were further incubated until OD600 reached 1.0. MICs of various antimicrobial agents were measured in 96-well micro-titer plates. For this purpose, exponentially growing cells were inoculated at a density of 10^5 cells/ml into wells containing LB medium in the presence of two-fold increasing concentrations of drugs under investigation at constant inducer concentration of 0.1% arabinose for E. coli or 0.1 mM IPTG for P. aeruginosa strains. Cell growth was determined visually or using Spark 10M microplate reader (Tecan) after incubation of the micro-titer plates at 37° C. for 16 h.
(§2) For this purpose, induced cells were dispensed into 96-well microplates with LB medium containing two-fold dilutions of an antibiotic of interest and a respective concentration of an inducer.

[3] = tested on: P. aeruginosa PAO1Δ3 (Δ3); settings: for MIC Δ3 —: P. aeruginosa Δ3 without pore, 0.1 mM IPTG, LB, 37° C., 16 h
Description: as §1, §2

[4] = tested on: E. coli GD102 (ΔTolC); settings: for MIC GD102 (ΔTolC) —: E. coli ΔTolC without pore, 0.1% arabinose, LB, 37° C., 16 h
Description: as §1, §2

[5] = tested on: P. aeruginosa PAO1, PAO1-Pore, Δ3, Δ3-Pore; experiment: Fold MIC change between P. aeruginosa strains (OM barrier, efflux); assay type: cell-based, Pseudomonas aeruginosa; settings: for Fold MIC change, Efflux, PAO1-Pore/Δ3-Pore / Fold MIC change, Efflux, PAO1/Δ3 / Fold MIC change, OM barrier, PAO1/PAO1-Pore / Fold MIC change, OM barrier, Δ3/Δ3-Pore: P. aeruginosa
[6] = tested on: P. aeruginosa PAO1-Pore (GKCW115, FhuAΔC/Δ4L pore); experiment: MIC, two-fold broth dilution, P. aeruginosa PAO1-Pore; settings: for MIC: Pseudomonas aeruginosa; for MIC PAO1 Pore: P. aeruginosa PAO1-Pore, 0.1 mM IPTG, LB, 37° C., 16 h
Description: as §1, §2

[7] = tested on: E. coli WT-Pore (GKCW101, FhuAΔC/Δ4L pore); experiment: microbe, parasite or virus in culture; settings: Escherichia coli
Description: as §1, §2

[8] = tested on: P. aeruginosa Δ3-Pore (GKCW116, FhuAΔC/Δ4L pore); experiment: MIC, two-fold broth dilution, P. aeruginosa Δ3-Pore; settings: for MIC Δ3 Pore: P. aeruginosa Δ3-Pore, 0.1 mM IPTG, LB, 37° C., 16 h
Description: as §1, §2

[9] = tested on: E. coli ΔTolC-Pore (GKCW103, FhuAΔC/Δ4L pore); settings: 0.1% arabinose, LB, 37° C., 16 h
Description: as §1, §2

[10] = tested on: P. aeruginosa PAO1; experiment: microbe, parasite or virus in culture; settings: Pseudomonas aeruginosa, PAO1, 16 h, read-out: MIC PAO1 —
Description: as §1, §2

[11] = tested on: E. coli WT-Pore (GKCW101, FhuAΔC/Δ4L pore); settings: 0.1% arabinose, LB, 37° C., 16 h
Description: as §1, §2

[12] = tested on: E. coli BW 25113 (WT); settings: E. coli WT without pore; 0.1% arabinose; LB, 37° C., 16 h
Description: as §1, §2

[13] = tested on: P. aeruginosa PAO1; settings: P. aeruginosa PAO1 without pore; 0.1 mM IPTG; LB, 37° C., 16 h
Description: as §1, §2

[14] = 16 h, read-out: MIC BW 25113 (WT) —
[15] = 16 h, read-out: MIC BW 25113 (WT) Pore

Molecule: CC[C@H]1OC(=O)[C@H](C)[C@@H](O[C@H]2C[C@@](C)(OC)[C@@H](O)[C@H](C)O2)[C@H](C)[C@@H](O[C@@H]2O[C@H](C)C[C@H](N(C)C)[C@H]2O)[C@](C)(O)C[C@@H](C)C(=O)[C@H](C)[C@@H](O)[C@]1(C)O [Erythromycin]
- Additional decrease of MIC in permeabilized ΔTolC-Pore cells ([1]; FIG. 4A): 16 fold
- Difference of MICs in E. coli WT and ΔTolC cells ([1]; FIG. 4A): 16 fold
- Reduction of MIC by permeabilization of the outer membrane in WT-Pore E. coli ([1]; FIG. 4A): 64 fold
- Total potentiation (WT to ΔTolC-Pore) ([1]; FIG. 4A): 512 fold
- MIC [2, 14]: 64 µg/mL
- MIC ([2]; read-out: MIC in E. coli WT cells): 87 µM
- MIC in P. aeruginosa Δ3 cells ([3]; FIG. 5): 21.8 µM (≈ 16 µg/mL)
- MIC Δ3 — [3]: 16 µg/mL (≈ 21.8 µM)
- MIC GD102 (ΔTolC) — [4]: 4 µg/mL (≈ 5.45 µM)
- MIC in E. coli ΔTolC cells ([4]; unchanged in the range of 0.001-0.5% arabinose (FIG. 4A)): 5.5 µM (≈ 4.04 µg/mL)
- Change of MIC on inactivation of the three major efflux pumps (PAO1 vs Δ3) [5]: 8 fold
- MIC ([6]; PAO1, read-out: MIC in P. aeruginosa PAO1-Pore cells): 1.4 µM
- MIC [7, 15]: 4 µg/mL
- MIC ([7]; read-out: MIC in E. coli WT-Pore cells): 1.4 µM
- MIC in P. aeruginosa Δ3-Pore cells ([8]; induced, plateau with increasing IPTG (FIG. 5)): 0.085 µM (≈ 0.0624 µg/mL)

Molecule: CO[C@H]1/C=C/O[C@@]2(C)Oc3c(C)c(O)c4c(O)c(c(/C=N/N5CCN(C)CC5)c(O)c4c3C2=O)NC(=O)/C(C)=C\C=C\[C@H](C)[C@H](O)[C@@H](C)[C@@H](O)[C@@H](C)[C@H](OC(C)=O)[C@@H]1C [Rifampicin]
- MIC GD102 (ΔTolC) Pore [9]: 0.25 µg/mL (≈ 0.304 µM)
- MIC [2, 14]: 4 µg/mL
- MIC Δ3 — [3]: 16 µg/mL (≈ 19.4 µM)
- MIC GD102 (ΔTolC) — [4]: 4 µg/mL (≈ 4.86 µM)
- MIC [10]: 16 µg/mL (≈ 19.4 µM)
- MIC ([6]; PAO1, 16 h, read-out: MIC PAO1 Pore): 0.5 µg/mL
- MIC [7, 15]: 0.25 µg/mL
- MIC Δ3 Pore [8]: 0.5 µg/mL (≈ 0.608 µM)

Molecule: CCCCCCCCCCCCOS(=O)(=O)[O-].[Na+] [SDS]
- MIC GD102 (ΔTolC) Pore [9]: 5 µg/mL
- Fold MIC change, Efflux, WT-Pore/ΔTolC-Pore [1]: 2000 fold
- Fold MIC change, Efflux, WT/ΔTolC [1]: 2000 fold
- Fold MIC change, OM barrier, WT/WT-Pore [1]: 1 fold
- Fold MIC change, OM barrier, ΔTolC/ΔTolC-Pore [1]: 1 fold
- MIC Δ3 — [3]: 10000 µg/mL
- MIC GD102 (ΔTolC) — [4]: 5 µg/mL
- Fold MIC change, Efflux, PAO1-Pore/Δ3-Pore [5]: 64 fold
- Fold MIC change, Efflux, PAO1/Δ3 [5]: ≧2 fold
- Fold MIC change, OM barrier, PAO1/PAO1-Pore [5]: ≧2 fold
- Fold MIC change, OM barrier, Δ3/Δ3-Pore [5]: 64 fold
- MIC PAO1 Pore [6]: 10000 µg/mL
- MIC BW 25113 (WT) Pore [11]: 10000 µg/mL
- MIC BW 25113 (WT) — [12]: 10000 µg/mL
- MIC Δ3 Pore [8]: 156.3 µg/mL
- MIC PAO1 — [13]: >10000 µg/mL

Molecule: Coumermycin
- MIC GD102 (ΔTolC) Pore [9]: 0.5 µg/mL
- Fold MIC change, Efflux, WT-Pore/ΔTolC-Pore [1]: 4 fold
- Fold MIC change, Efflux, WT/ΔTolC [1]: 1 fold
- Fold MIC change, OM barrier, WT/WT-Pore [1]: 4 fold
- Fold MIC change, OM barrier, ΔTolC/ΔTolC-Pore [1]: 16 fold
- MIC Δ3 — [3]: 16 µg/mL
- MIC GD102 (ΔTolC) — [4]: 8 µg/mL
- Fold MIC change, Efflux, PAO1-Pore/Δ3-Pore [5]: 1 fold
- Fold MIC change, Efflux, PAO1/Δ3 [5]: 1 fold
- Fold MIC change, OM barrier, PAO1/PAO1-Pore [5]: 16 fold
- Fold MIC change, OM barrier, Δ3/Δ3-Pore [5]: 16 fold
- MIC PAO1 Pore [6]: 1 µg/mL
- MIC BW 25113 (WT) Pore [11]: 2 µg/mL
- MIC BW 25113 (WT) — [12]: 8 µg/mL
- MIC Δ3 Pore [8]: 1 µg/mL
- MIC PAO1 — [13]: 16 µg/mL

Molecule: Gentamicin
- MIC GD102 (ΔTolC) Pore [9]: 4 µg/mL
- Fold MIC change, Efflux, WT-Pore/ΔTolC-Pore [1]: 0.5 fold
- Fold MIC change, Efflux, WT/ΔTolC [1]: 1 fold
- Fold MIC change, OM barrier, WT/WT-Pore [1]: 2 fold
- Fold MIC change, OM barrier, ΔTolC/ΔTolC-Pore [1]: 1 fold
- MIC GD102 (ΔTolC) — [4]: 4 µg/mL
- MIC BW 25113 (WT) Pore [11]: 2 µg/mL
- MIC BW 25113 (WT) — [12]: 4 µg/mL

Molecule: Tobramycin
- MIC Δ3 — [3]: 0.5 µg/mL
- Fold MIC change, Efflux, PAO1-Pore/Δ3-Pore [5]: 2 fold
- Fold MIC change, Efflux, PAO1/Δ3 [5]: 4 fold
- Fold MIC change, OM barrier, PAO1/PAO1-Pore [5]: 2 fold
- Fold MIC change, OM barrier, Δ3/Δ3-Pore [5]: 1 fold
- MIC PAO1 Pore [6]: 1 µg/mL
- MIC Δ3 Pore [8]: 0.5 µg/mL
- MIC PAO1 — [13]: 2 µg/mL

Molecule: Triclosan
- MIC GD102 (ΔTolC) Pore [9]: 0.002 µg/mL
- MIC Δ3 — [3]: 32 µg/mL
- MIC GD102 (ΔTolC) — [4]: 0.004 µg/mL
- MIC PAO1 Pore [6]: >1024 µg/mL
- MIC BW 25113 (WT) Pore [11]: 0.031 µg/mL
- MIC BW 25113 (WT) — [12]: 0.031 µg/mL
- MIC Δ3 Pore [8]: 8 µg/mL
- MIC PAO1 — [13]: >1024 µg/mL

Molecule: Virginiamycin
- MIC GD102 (ΔTolC) Pore [9]: 0.5 µg/mL
- Fold MIC change, Efflux, WT-Pore/ΔTolC-Pore [1]: 512 fold
- Fold MIC change, Efflux, WT/ΔTolC [1]: ≧64 fold
- Fold MIC change, OM barrier, WT/WT-Pore [1]: ≧2 fold
- Fold MIC change, OM barrier, ΔTolC/ΔTolC-Pore [1]: 16 fold
- MIC GD102 (ΔTolC) — [4]: 8 µg/mL
- MIC BW 25113 (WT) Pore [11]: 256 µg/mL
- MIC BW 25113 (WT) — [12]: >256 µg/mL
